How the values were obtained:
[1] = Metabolic stability in monkey liver microsomes; format: in vitro ADME
Description: (§1) Samples were analysed by LC–MS/MS as mentioned above.2.1 CLint, in vitro=0.693/t1/2/Cprotein, 2.2 CLint, in vivo=CLint, in vitro×Houston×LW/1000 2.3 andCLhep in vivo=HBF × fu ×CLint, in vivo/HBF + fu ×CLint, in vivo. Where Cprotein is microsomal protein concentration (mg ml^−1); Houston is Houston factor (45 mg of microsomal protein g^−1 liver); LW is liver weight (g) (per species); HBF is hepatic blood flow (ml min^−1) (per species); fu (two places) and later is unbound fraction (fu = 1 − %protein binding).

[2] = Metabolic stability in human liver microsomes; format: in vitro ADME
Description: as §1

[3] = Metabolic stability in mouse liver microsomes; format: in vitro ADME
Description: as §1

[4] = Plasma protein binding, equilibrium dialysis, monkey plasma; format: in vitro ADME
Description: (§2) The PPB of ET-26-HCl in mouse, rat, beagle dog, monkey and human plasma was determined according to the equilibrium dialysis method. In brief, 1 ml of control plasma samples in dialysis bag was incubated in 10 ml of PBS containing ET-26-HCl at a final concentration of 2.21 × 10^2, 1.77 × 10^3 and 3.54 × 10^3 […] at 4°C with an equilibrium time of 9 h to reach the mass balance binding condition. A 100 µl aliquots of the PBS buffer and the plasma in the dialysis bag were transferred to 2 ml EP tubes and diluted to 995 µl with PBS and analysed on the LC–MS/MS system. The PPB (fppb) was calculated as follows: fppb=Din−Dout/Din×100% , where Din is the plasma drug concentration in the dialysis bag and Dout is the dialysate drug concentration.

[5] = Plasma protein binding, equilibrium dialysis, rat plasma; format: in vitro ADME
Description: as §2

[6] = Tissue distribution in Sprague Dawley rats; format: in vivo
Description: Concentrations of ET-26-HCl and ET-26-acid in biological samples were determined by liquid chromatography–tandem mass spectrometry (LC–MS/MS) after deproteinization with methanol. The bioanalytical method for simultaneous quantification of ET-26-HCl and ET-26-acid in the different matrix was fully validated according to FDA guidelines (electronic supplementary material, figure S1 and tables S1 and S2) in our previous study. Briefly, a 100 µl sample (plasma, tissue homogenate, bile, urine and faeces suspension) were spiked with 20 µl of IS solution and vortexed for 30 s. The mixture was then processed for protein precipitation with 300 µl methanol, followed by centrifugation at 12 000 r.p.m. for 5 min. Supernatant was collected and analysed by LC–MS/MS system.
Sprague Dawley (SD) rats (200–240 g) were provided by the Animal Facility at Sichuan University (Chengdu, China). All rats received a single 4.2 mg kg^−1 dose of ET-26-HCl intravenously. Rats were sacrificed and tissues, including heart, spleen, lung, intestine, colon, kidney, brain, fat, stomach, liver, muscle, testis and ovary were collected at 0, 1, 3, 6 and 10 h post-dosing (six rats/time-point). Tissue samples were rinsed thrice in ice cold saline, and blotted dry with filter papers. Weighed amount of tissues were homogenized in normal saline (thrice the tissue weight, w/v) and homogenates were stored at −80°C until analysis.

[7] = parameters: method as in earlier work; settings: rat; ref results of the drug effect in the early stage of the cooperation laboratory; cited from earlier work
[8] = Plasma protein binding, equilibrium dialysis, beagle dog plasma; format: in vitro ADME
Description: as §2

[9] = measured concentration 654 ng ml^−1
[10] = measured concentration 2.62 × 10^3 ng ml^−1, read-out: protein binding (converted)
[11] = measured concentration 5.23 × 10^3 ng ml^−1, read-out: protein binding (converted)
[12] = overall over the three concentrations, read-out: plasma protein binding rate (converted)

Compound: COCCOC(=O)c1cncn1[C@H](C)c1ccccc1.Cl [ET-26-HCl, (R)-2-methoxyethyl1-(1-phenylethyl)-1H-imidazole-5-carboxylate hydrochloride]
- CLint, in vitro ([1]; monkey liver microsomes): 2216 ml min g^−1 protein
- metabolic stability (in words) ([1]; monkey liver microsomes): not metabolically stable
- time to complete disappearance of ET-26-HCl ([1]; monkey liver microsomes): ≤ 15 min
- CLint, in vitro ([1]; monkey liver microsomes, Cprotein 0.33 mg ml^−1): 2216 ± 43.0 ml min^−1 g^−1 protein
- extrapolated CLhep in vivo ([1]; monkey, from liver microsomes): 168 ± 0.05 mL/min
- CLint, in vitro ([2]; human liver microsomes): 50.0 ml min g^−1 protein
- metabolic stability (in words) ([2]; human liver microsomes): relatively stable
- CLint, in vitro ([2]; human liver microsomes, Cprotein 0.33 mg ml^−1): 50.0 ± 1.9 ml min^−1 g^−1 protein
- extrapolated CLhep in vivo ([2]; human, from liver microsomes): 1077 ± 11.8 mL/min
- extrapolated CLint, in vivo ([2]; human, from liver microsomes): 3823 ± 146.4 mL/min
- half-life ([2]; pH 7.4, human liver microsomes, Cprotein 0.33 mg ml^−1): 42 ± 1.7 min
- CLint, in vitro ([3]; mouse liver microsomes): 629 ml min g^−1 protein
- metabolic stability (in words) ([3]; mouse liver microsomes): not metabolically stable
- CLint, in vitro ([3]; mouse liver microsomes, Cprotein 0.33 mg ml^−1): 629 ± 25.7 ml min^−1 g^−1 protein
- extrapolated CLhep in vivo ([3]; mouse, from liver microsomes): 2.8 ± 0.0 mL/min
- extrapolated CLint, in vivo ([3]; mouse, from liver microsomes): 42.4 ± 1.7 mL/min
- half-life ([3]; mouse, liver microsomes, pH 7.4, mouse liver microsomes, Cprotein 0.33 mg ml^−1): < 5 min
- fraction unbound at 9 h, 654 ng ml^−1 [4, 9]: 0.387
- fraction unbound at 9 h [4, 10]: 0.375 ± 0.0269
- fraction unbound at 9 h [4, 11]: 0.357
- fraction unbound at 9 h [4, 12]: 0.373
- fraction unbound at 9 h, 654 ng ml^−1 [5, 9]: 0.181
- fraction unbound at 9 h [5, 10]: 0.15
- fraction unbound at 9 h [5, 11]: 0.178
- fraction unbound at 9 h [5, 12]: 0.17
- time for complete excretion from kidney ([6]; i.v. 4.2 mg kg^−1): ≤ 24 h
- time for elimination from the brain ([6]; i.v. 4.2 mg kg^−1): ≤ 3 h
- concentration in the brain ([6]; i.v. 4.2 mg kg^−1, at the onset): 2570 ng/mL
- time for clearance from tissues ([6]; i.v. 4.2 mg kg^−1 ET-26-HCl): around 3 h
- tissues with the highest concentration ([6]; i.v. 4.2 mg kg^−1 ET-26-HCl): Adipose tissue and liver
- ED50 [7]: 2.1 mg/kg
- fraction unbound at 9 h ([8]; beagle dog plasma, overall over the three concentrations, read-out: plasma protein binding rate (converted)): 0.34
- fraction unbound at 9 h, 654 ng ml^−1 ([8]; dog plasma, measured concentration 654 ng ml^−1): 0.345
- fraction unbound at 9 h ([8]; dog plasma, measured concentration 2.62 × 10^3 ng ml^−1, read-out: protein binding (converted)): 0.369
- fraction unbound at 9 h ([8]; dog plasma, measured concentration 5.23 × 10^3 ng ml^−1, read-out: protein binding (converted)): 0.306

Reference: PMC7062083, “Metabolite identification, tissue distribution, excretion and preclinical pharmacokinetic studies of ET-26-HCl, a new analogue of etomidate” (Royal Society Open Science, 2020)
